# Measured values published in publication PMC6584114, “Metabolism of IMM-H004 and Its Pharmacokinetic-Pharmacodynamic Analysis in Cerebral Ischemia/Reperfusion Injured Rats” (Frontiers in Pharmacology, 2019).
# Where two headings read alike, the source gives them in different places.
# Legend:
# [1] = tested on: MCAO/R rats; test: Neuroprotection in transient MCAO/R rats (infarct volume, neurological score); type: in vivo, rat; settings: 10 mg/kg iv after reperfusion, 24 h, vs model
# Text: Transient MCAO/R was applied to compare the neuroprotection of IMM-H004 and IMM-H004G. Rats were fasted overnight with free access to water and randomly assigned to different groups. Rats were anesthetized with a mixture of 5% isoflurane and 95% oxygen and maintained with a mixture of 3% isoflurane and 97% oxygen during the surgical procedure. A 4-0 nylon thread, the tip of which was burned (diameter 0.36 mm), was inserted into the right internal carotid artery and advanced until the origin of the right MCA was occluded. After 60 min of the occlusion, the thread was withdrawn to allow reperfusion, and then the rats were returned to the chamber. Saline or edaravone at dose of 6 mg/kg or IMM-H004 citrate and IMM-H004G at dose of 10 mg/kg (dissolved in saline to yield a concentration of 2 mg/ml) were administered by intravenous injection immediately after reperfusion.
# The rats were assessed for neurologic deficits at 24 h after reperfusion according to Zea Longa’s five-point scale. […] The animals without symptoms of neurological impairment or dying after the surgery were rejected. All animals were killed 24 h after reperfusion. Brains of the animals were removed and cut into 2 mm-thick slices, for a total of six slices per animal. The slices were immersed in a 2% solution of 2,3,5-triphenyltetrazolium chloride in phosphate buffered saline at 37°C for 20 min and then fixed in 4% formaldehyde overnight. Images of the slices were obtained with a scanner and a computer. The infarct area and the total area were calculated by tracing the areas on the computer screen with Image J. The percentage of the infarct volume was expressed as the infarct volumes (white parts)/the whole volume of the cortex.
# [2] = set-up: method as in Jiang et al., 2018; settings: brain microdialysis; ref Jiang et al., 2018; cited from earlier work
# [3] = tested on: primary human hepatocytes; test: IMM-H004 metabolism by primary human hepatocytes; type: in vitro ADME; settings: human hepatocytes incubated with 30 nM IMM-H004, up to 3 h
# Description: Primary human hepatocytes were used to predict the metabolism of IMM-H004 in humans. Cryopreserved human hepatocytes were obtained from Bioreclamation IVT (Baltimore, MD, USA). Three different hepatocyte preparations (Lot CDP, ZHL, and DSX) were pooled in this study. Hepatocytes were resuspended and seeded in 96-well plates at a density of 0.7 × 10^6 cells/ml. After 24 h of culture, cells were washed with Hanks’ balanced salt solution, followed by addition of 30 nM IMM-H004 dissolved in Hanks’ balanced salt solution. Incubations were carried out at 37°C up to 3 h under gentle shaking. Cell culture supernatant was collected within 3 h and determined by LC-MS/MS. All experiments were conducted in triplicate.
# (§1) The LC-MS/MS system consisted of Shimadzu 30A UPLC and API 4000 triple quadruple mass spectrometer (AB SCIEX, USA). Data acquisition and analysis were accomplished using Analyst 1.5.2 software. The analytes and IS were chromatographed by injection of 1 μL sample. The mobile phases consisted of solvent A (0.5% formic acid in water) and solvent B (0.5% formic acid in methanol) at a flow rate of 0.3 ml/min on an Eclipse Plus C18 column (2.1 mm × 50 mm, 3.5 μm, Agilent, USA), and the operating temperature was 40°C. The elution condition was 10% solvent B for 0.7 min, ascending to 98% B in 2.3 min, holding for 3.0 min and reequilibrating to 10% B within 0.1 min and maintained for 2.4 min (Jiang JW, 2018). The specific transitions monitored were 305→248 for IMM-H004, 291→234 for M1, 291→248 for M2, 481→305 for IMM-H004G, 385→305 for M4, and 260→183 for IS.
# [4] = Plasma pharmacokinetics in MCAO/R rats after iv IMM-H004 citrate; type: in vivo; settings: rat, iv IMM-H004 citrate 10 mg/kg; for Tmax: iv, 10 mg/kg
# Description: The plasma pharmacokinetics (PK) and pharmacodynamics (PD) of IMM-H004 and IMM-H004G were investigated in a cerebral ischemia-reperfusion rat model produced by middle cerebral artery occlusion/reperfusion (MCAO/R) after iv administration of IMM-H004. In brief, rats underwent a 1-h MCAO and then received IMM-H004 citrate (10 mg/kg, dissolved in saline to yield a concentration of 2 mg/ml) immediately after reperfusion, an effective dosing time as reported ([Zuo et al., 2015]; [Yang et al., 2017]). For sham surgery, all the arteries were exposed for the surgical period, but the filament was not inserted into the MCA. Blood samples were collected through external jugular vein cannula into heparinized tubes at 0.033, 0.167, 0.5, 1, 2, 4, 6, 8, 12, 24, 36, and 48 h postdose for IMM-H004 and IMM-H004G detection (50 μL of blood at each time point) and at 0.5, 1, 2, 4, 7, and 10 h postdose for malondialdehyde (MDA) detection (80 μL of blood at each time point). Plasma was immediately separated by centrifugation at 900×g for 5 min. Plasma concentrations of IMM-H004 and IMM-H004G in ischemia-reperfusion rats were determined by LC-MS/MS analysis. The PK parameters were calculated by noncompartmental analysis using WinNonlin Version 6.1 (Pharsight, Mountain View, CA). Plasma MDA concentrations in ischemia-reperfusion and sham rats within 24 h were estimated by enzyme-linked immunosorbent assay.
# as §1
# [5] = Excretion in rat urine, bile and feces after iv IMM-H004 citrate; type: in vivo; settings: iv IMM-H004 citrate 6 mg/kg
# Description: After intravenous (iv) injection with IMM-H004 citrate (6 mg/kg, dissolved in saline to yield a concentration of 1.2 mg/ml), rats were housed individually in metabolic cages to allow separate collection of urine and feces until 72 h postdose. Additional rats were bile cannulated under light ether anesthesia. Each rat was housed individually in a metabolic cage and allowed to recover from anesthesia for 2 to 3 h. Then bile duct cannulated rats were iv injected with IMM-H004 citrate (6 mg/kg, dissolved in saline to yield a concentration of 1.2 mg/ml), bile samples were collected until 24 h postdose.
# Feces samples were homogenized in 10-fold solvent of water and methanol (1:1) and diluted 10-fold in water. Bile and urine samples were diluted 100-fold in water. The concentrations of IMM-H004, M1, M2, and IMM-H004G in diluted bile, urine, and feces samples were determined by LC-MS/MS.
# as §1
# [6] = tested on: PC12 cells; test: Neuroprotection in oxygen-glucose deprivation injured PC12 cells (MTT cell viability); type: cell-based
# Description: The neuroprotective activity of IMM-H004 and IMM-H004G was evaluated on PC12 cells damaged by oxygen-glucose deprivation (OGD). PC12 cells were purchased from the American Type Culture Collection. Cultures were maintained at 37°C in 5% CO2 in a humidified incubator. For cell viability assay, PC12 cells were incubated in 96-well plates at a density of 5 × 10^4/ml for 24 h. In the sham group, PC12 cells were cultured in Dulbecco’s modified eagle medium supplemented with 5% fetal bovine serum and 5% equine serum (Gibco, USA). In the OGD group, PC12 cells were cultured in glucose-free Earle’s balanced salt solution supplemented with 15 mM Na2S2O4 for 2 h and then incubated with compounds of nerve growth factor (NGF, 10 μM), edaravone (10 μM, 50 μM), IMM-H004 (1 μM, 10 μM), and IMM-H004G (1 μM, 10 μM), respectively. After 24 h of incubation, MTT (5 mg/ml) was added into the cell cultures and incubated for an additional 4 h. Then the supernatant was removed and 100 μL DMSO was added. Absorbance was measured using an Ultramark microplate reader at a wavelength of 562 nm. The cell viability was expressed as a percentage of the absorbance density value of control cultures.
# [7] = tested on: chemokine-like factor 1; set-up: method as in earlier work; settings: ref Li et al., 2010, Kong et al., 2011, Sun et al., 2013, 2014, read-out: IC50 as antagonist of chemokine-like factor 1; cited from earlier work
# [8] = tested on: cell cultures; settings: not tested in this paper's methods; reference not given; cited from earlier work
# [9] = tested on: recombinant human CYP450 enzymes; test: Metabolism by cDNA-expressed human CYP450 enzymes; type: in vitro ADME; settings: 1 μM IMM-H004, 50 pmol/ml CYP, 40 min
# Description: CYP450s. IMM-H004 was incubated in triplicate with […] individual human complementary DNA (cDNA) expressed CYPs (CYP1A1, 1A2, 2A6, 2B6, 2C8, 2C9, 2C19, 2D6, 2E1, 2J2, 3A4, 4A11, 4F2, and 4F3) at 37°C. The incubation mixtures contained individual CYP450 enzymes (50 pmol/ml), IMM-H004 (1 μM), and NADPH regeneration system in a final volume of 0.2 ml Tris-HCl buffer (50 mM, pH 7.4) containing 5 mM MgCl2. The mixtures were incubated for 40 min before being quenched with two volumes of ice-cold acetonitrile containing IS (100 ng/ml). After vortex-mixing and centrifugation, M1 and M2 in the supernatant were analyzed by LC-MS/MS.
structure (smiles),measurement,setting,value
COc1cc(OC2OC(C(=O)O)C(O)C(O)C2O)cc2oc(=O)c(N3CCN(C)CC3)c(C)c12 (stereo not shown) [IMM-H004G],infarct volume,[1],markedly reduced (p < 0.01)
same,neurological test score,[1],significant improvement (p < 0.01)
same,exposure of IMM-H004G in rat brain extracellular fluid relative to IMM-H004,[2],10.5 fold
same,detection of metabolite in cell supernatant,[3],could be detected
same,AUC(0-inf),[4],29100 ng·h/mL
same,AUC(0-t),[4],28900 ng·h/mL
same,Cmax,[4],13000 ng/mL
same,MRT last,[4]; read-out: MRT(0-t),7.89 ± 0.57 h
same,MRT inf,[4]; read-out: MRT(0-∞),8.16 ± 0.65 h
same,half-life,[4]; read-out: t 1/2β (converted),397 ± 51.6 min
same,Tmax,[4]; read-out: T max,10.2 min
same,Tmax,[4]; read-out: time to maximum plasma concentration after dosing,≤ 15 min
same,recovery of IMM-H004G in bile,"[5]; bile duct cannulated rats, until 24 h",75.9 % of intake
same,IMM-H004G in feces,[5]; rat feces,undetectable
same,urinary IMM-H004G recovered,"[5]; rat urine, 72-h sampling period",69.7 % of intake
same,cell viability of OGD-injured PC12 cells,"[6]; 1 and 10 μM, 24 h, MTT, vs model group",significant (p < 0.05) preservation of viability
same,IMM-H004 detected in PC12 cultures after incubation with IMM-H004G,[6]; 24 h of incubation with IMM-H004G,only trace of IMM-H004 could be detected
Cc1c(N2CCN(C)CC2)c(=O)oc2cc(O)cc(O)c12 [M1],IC50,[7],21.2 nM
same,neuroprotective activity in cell cultures,[8],showed neuroprotective activity in cell cultures
same,detection of metabolite in cell supernatant,[3],not detectable
same,M1 formation in CYP450 enzyme incubations,[9],could not be detected in all CYP450 enzymes incubations
COc1cc(O)cc2oc(=O)c(N3CCNCC3)c(C)c12 [M2],detection of metabolite in cell supernatant,[3],not detectable
